Results on two compounds are retold here after ChEMBL document CHEMBL5463728, “Data for DCP probe BAY-6096” (2023).

The species entered for series [1] is Sus scrofa. The experiment in a line: Inhibition of ATPase, Na+/K+, Heart at compound concentration of 10.0 uM in the Eurofins-Panlabs enzyme assay (Eurofins_assay_107710). The settings on record: Compound concentration 10.0 uM. Details: substrate with concentration; call rule not given here.
Series [2] addresses Monoamine oxidase A (MAO-A) (Homo sapiens, UniProt P21397). The series is described as follows: Inhibition of Monoamine Oxidase MAO-A at compound concentration of 10.0 uM in the Eurofins-Panlabs enzyme assay (Eurofins_assay_140010). Set-up: substrate with concentration 50 uM Kynuramine, incubation time 60 min, incubation temperature 37 C. The settings on record: recombinant human MAO-A expressed in insect Hi5 cells, probe Kynuramine (50 uM), compound concentration 10 uM.

For series [3], the target named is Thromboxane-A synthase (Homo sapiens) (UniProt P24557). The series is described as follows: Inhibition of Thromboxane Synthase at compound concentration of 10.0 uM in the Eurofins-Panlabs enzyme assay (Eurofins_assay_194020). The settings on record: Compound concentration 10.0 uM. Details: substrate with concentration.
Series [4] has as its target Adenosine Transporter (Cavia porcellus) (UniProt H0V4R7+H0UUG1+H0V3Z5). The experiment in a line: Inhibition of Transporter, Adenosine at compound concentration of 10.0 uM in the Eurofins-Panlabs radioligand binding assay (Eurofins_assay_202000). It is filed as protein assay. Details: ligand concentration 0.5 nM, non-specific ligand with concentration 5 uM Nitrobenzylthioinosine, incubation time 30 min, incubation temperature 25 C. The settings on record: Compound concentration 10.0 uM.

For series [5], the target named is Monoamine oxidase B (MAO-B) (Homo sapiens, UniProt P27338). The experiment in a line: Inhibition of Monoamine Oxidase MAO-B at compound concentration of 10.0 uM in the Eurofins-Panlabs enzyme assay (Eurofins_assay_140120). Set-up: substrate with concentration 50 uM Kynuramine, incubation time 60 min, incubation temperature 37 C. The settings on record: recombinant human MAO-B expressed in insect Hi5 cells, probe Kynuramine (50 uM), compound concentration 10 uM.

Series [6] deals with Beta-1 adrenergic receptor (Homo sapiens, UniProt P08588). The series is described as follows: Adrenoceptor reporter cell assay (ADRB1). It is filed as functional.
Series [7] deals with Beta-2 adrenergic receptor (Homo sapiens, UniProt P07550). The series is described as follows: Adrenoceptor reporter cell assay (ADRB2). The format is functional.
Series [8] concerns the target Aldo-keto reductase family 1 member B1 (Rattus norvegicus) (UniProt P07943). The series is described as follows: Inhibition of Aldose Reductase at compound concentration of 10.0 uM in the Eurofins-Panlabs enzyme assay (Eurofins_assay_107000). The conditions noted are these: Compound concentration 10.0 uM. Set-up: substrate with concentration.
Series [9] is filed under the species Rattus norvegicus. The conditions noted are these: Compound concentration 10.0 uM.
Series [10] deals with B2 bradykinin receptor (Homo sapiens) (UniProt P30411). The conditions noted are these: Compound concentration 10.0 uM.
Series [11] addresses GABA-A receptor; anion channel (Rattus norvegicus) (UniProt O09028+P15431+P18506+P18508+P19969+P20236+P23574+P23576+P28471+P28473+P30191+P62813+P63079+P63138+Q91ZM7+Q9ES14). The conditions noted are these: Compound concentration 10.0 uM.
For series [12], the target named is Glutamate NMDA receptor (Rattus norvegicus) (UniProt P35439+Q00959+Q00960+Q00961+Q62645+Q8VHN2+Q9R1M7). The conditions noted are these: Compound concentration 10.0 uM.
The target in series [13] is Muscarinic acetylcholine receptor M1 (Homo sapiens) (UniProt P11229). The conditions noted are these: Compound concentration 10.0 uM.
For series [14], the target named is Delta-type opioid receptor (Homo sapiens) (UniProt P41143). The settings on record: Compound concentration 10.0 uM.
Series [15] deals with Purinergic P2Y (Rattus norvegicus) (UniProt O35811+Q9EPX4+P49651+Q63371+P41232+O35881+Q6GUG4). The settings on record: Compound concentration 10.0 uM.
In series [16] the target is T1, 5-hydroxytryptamine receptor 1A (Homo sapiens) (UniProt P08908).
T1 sequence (whole entry): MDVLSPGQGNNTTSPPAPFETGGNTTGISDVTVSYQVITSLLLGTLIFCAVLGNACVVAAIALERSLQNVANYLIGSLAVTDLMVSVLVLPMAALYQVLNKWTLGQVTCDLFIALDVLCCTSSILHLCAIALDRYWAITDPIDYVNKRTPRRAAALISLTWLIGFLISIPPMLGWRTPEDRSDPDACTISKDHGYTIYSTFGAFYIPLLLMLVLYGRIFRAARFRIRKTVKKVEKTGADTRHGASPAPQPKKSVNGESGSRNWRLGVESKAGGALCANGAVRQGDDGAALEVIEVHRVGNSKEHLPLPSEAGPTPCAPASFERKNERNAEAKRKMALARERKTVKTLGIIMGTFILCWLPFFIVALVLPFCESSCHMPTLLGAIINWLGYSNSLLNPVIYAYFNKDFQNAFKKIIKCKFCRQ
The conditions noted are these: Compound concentration 10.0 uM.

Series [17] has as its target Glucocorticoid receptor (Homo sapiens) (UniProt P04150). The settings on record: Compound concentration 10.0 uM.
Series [18] addresses Acetylcholinesterase (Homo sapiens) (UniProt P22303). The conditions noted are these: Compound concentration 10.0 uM.
In series [19] the target is cGMP-specific 3',5'-cyclic phosphodiesterase (Homo sapiens) (UniProt O76074). The settings on record: Compound concentration 10.0 uM.
Series [20] deals with T2, Muscarinic acetylcholine receptor M4 (Homo sapiens) (UniProt P08173).
T2 sequence (whole entry): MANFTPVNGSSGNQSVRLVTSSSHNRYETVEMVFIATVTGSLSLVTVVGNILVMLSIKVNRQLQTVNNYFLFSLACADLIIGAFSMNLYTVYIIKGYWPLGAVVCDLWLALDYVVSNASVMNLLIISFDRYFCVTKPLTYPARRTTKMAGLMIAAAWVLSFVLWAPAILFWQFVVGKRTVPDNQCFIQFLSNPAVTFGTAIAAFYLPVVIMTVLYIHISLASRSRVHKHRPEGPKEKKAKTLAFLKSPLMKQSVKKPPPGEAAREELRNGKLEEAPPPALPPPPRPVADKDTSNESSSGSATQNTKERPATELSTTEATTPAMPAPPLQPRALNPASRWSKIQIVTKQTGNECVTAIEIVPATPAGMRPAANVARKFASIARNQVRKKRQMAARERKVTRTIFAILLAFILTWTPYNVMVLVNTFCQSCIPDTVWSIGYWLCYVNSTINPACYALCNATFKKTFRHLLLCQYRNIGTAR
The settings on record: Compound concentration 10.0 uM.

The target in series [21] is Gamma-aminobutyric acid type B receptor subunit 1 (Homo sapiens) (UniProt Q9UBS5). The settings on record: Rattus norvegicus; Compound concentration 10.0 uM.
Series [22] has as its target B1 bradykinin receptor (Homo sapiens) (UniProt P46663). The settings on record: Compound concentration 10.0 uM.
Series [23] addresses Progesterone receptor (Homo sapiens) (UniProt P06401). The conditions noted are these: Compound concentration 10.0 uM.
For series [24], the target named is 5-hydroxytryptamine receptor 1A (Homo sapiens, UniProt P08908). The series is described as follows: GPCRScan assay: inhibition of 5-HT1A. Details: radioligand conc. used [nm] 0.5 – 1.0, parental cells stable CHO.
Series [25] deals with Sodium-dependent dopamine transporter (Homo sapiens) (UniProt Q01959). The settings on record: Compound concentration 10.0 uM.
Series [26] concerns the target Alpha-2B adrenergic receptor (Homo sapiens) (UniProt P18089). The settings on record: filed as antagonist, Compound concentration 10.0 uM.
In series [27] the target is Muscarinic acetylcholine receptor M1 (Homo sapiens) (UniProt P11229). The conditions noted are these: Compound concentration 10.0 uM. This is another data set of the same source.

Sequence of Muscarinic acetylcholine receptor M1 (Homo sapiens) (P11229 whole entry): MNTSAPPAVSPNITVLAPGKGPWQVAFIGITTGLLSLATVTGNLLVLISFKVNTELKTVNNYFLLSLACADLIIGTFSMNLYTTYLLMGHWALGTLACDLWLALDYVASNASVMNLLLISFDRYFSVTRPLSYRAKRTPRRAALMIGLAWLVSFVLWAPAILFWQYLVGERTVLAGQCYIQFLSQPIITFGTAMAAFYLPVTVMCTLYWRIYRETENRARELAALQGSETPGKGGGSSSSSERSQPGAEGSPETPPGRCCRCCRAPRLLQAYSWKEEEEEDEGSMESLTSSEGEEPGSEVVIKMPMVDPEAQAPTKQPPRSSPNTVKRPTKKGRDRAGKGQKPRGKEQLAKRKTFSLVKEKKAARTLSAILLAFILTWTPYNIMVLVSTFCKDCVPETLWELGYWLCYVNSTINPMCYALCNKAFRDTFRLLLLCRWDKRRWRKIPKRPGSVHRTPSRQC
Sequence of Sodium-dependent dopamine transporter (Homo sapiens) (Q01959 whole entry): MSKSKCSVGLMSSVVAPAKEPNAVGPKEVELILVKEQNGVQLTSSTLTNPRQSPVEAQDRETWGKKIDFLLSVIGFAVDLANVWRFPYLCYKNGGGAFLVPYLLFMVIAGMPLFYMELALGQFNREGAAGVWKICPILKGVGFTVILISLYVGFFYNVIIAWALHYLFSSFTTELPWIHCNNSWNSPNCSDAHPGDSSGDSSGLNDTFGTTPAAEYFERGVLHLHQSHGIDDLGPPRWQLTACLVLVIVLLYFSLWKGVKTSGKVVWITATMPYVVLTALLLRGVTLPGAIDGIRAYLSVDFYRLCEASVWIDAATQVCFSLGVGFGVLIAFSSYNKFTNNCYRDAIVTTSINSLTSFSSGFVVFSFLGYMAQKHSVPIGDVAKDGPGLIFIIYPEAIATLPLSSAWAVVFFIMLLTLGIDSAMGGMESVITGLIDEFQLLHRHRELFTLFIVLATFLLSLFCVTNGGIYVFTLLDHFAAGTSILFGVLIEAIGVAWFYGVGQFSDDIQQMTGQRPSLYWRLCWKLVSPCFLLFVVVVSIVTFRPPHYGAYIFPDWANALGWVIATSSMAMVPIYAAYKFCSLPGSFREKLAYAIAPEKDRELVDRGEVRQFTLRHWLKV
Sequence of Alpha-2B adrenergic receptor (Homo sapiens) (P18089 whole entry): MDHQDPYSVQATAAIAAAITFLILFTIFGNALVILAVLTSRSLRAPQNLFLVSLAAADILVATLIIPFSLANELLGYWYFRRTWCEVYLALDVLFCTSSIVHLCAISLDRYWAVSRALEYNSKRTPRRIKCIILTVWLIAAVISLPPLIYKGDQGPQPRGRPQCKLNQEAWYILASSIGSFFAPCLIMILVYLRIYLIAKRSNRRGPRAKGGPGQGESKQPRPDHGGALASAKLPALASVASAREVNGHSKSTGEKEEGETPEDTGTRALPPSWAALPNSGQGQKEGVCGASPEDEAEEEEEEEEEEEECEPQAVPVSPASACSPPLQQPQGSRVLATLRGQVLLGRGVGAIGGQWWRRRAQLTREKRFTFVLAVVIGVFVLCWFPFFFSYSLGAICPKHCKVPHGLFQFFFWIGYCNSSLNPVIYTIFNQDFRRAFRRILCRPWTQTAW
Sequence of B1 bradykinin receptor (Homo sapiens) (P46663 whole entry): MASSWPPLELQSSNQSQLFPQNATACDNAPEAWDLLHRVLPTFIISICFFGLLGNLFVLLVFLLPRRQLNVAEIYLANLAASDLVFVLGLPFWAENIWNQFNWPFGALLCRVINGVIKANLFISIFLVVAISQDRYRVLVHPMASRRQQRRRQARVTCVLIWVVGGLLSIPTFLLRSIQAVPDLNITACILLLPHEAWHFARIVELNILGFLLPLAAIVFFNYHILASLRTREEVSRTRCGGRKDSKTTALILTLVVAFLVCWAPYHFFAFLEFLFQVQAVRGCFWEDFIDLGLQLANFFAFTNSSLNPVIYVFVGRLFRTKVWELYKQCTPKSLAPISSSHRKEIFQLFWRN
Sequence of Progesterone receptor (Homo sapiens) (P06401 whole entry): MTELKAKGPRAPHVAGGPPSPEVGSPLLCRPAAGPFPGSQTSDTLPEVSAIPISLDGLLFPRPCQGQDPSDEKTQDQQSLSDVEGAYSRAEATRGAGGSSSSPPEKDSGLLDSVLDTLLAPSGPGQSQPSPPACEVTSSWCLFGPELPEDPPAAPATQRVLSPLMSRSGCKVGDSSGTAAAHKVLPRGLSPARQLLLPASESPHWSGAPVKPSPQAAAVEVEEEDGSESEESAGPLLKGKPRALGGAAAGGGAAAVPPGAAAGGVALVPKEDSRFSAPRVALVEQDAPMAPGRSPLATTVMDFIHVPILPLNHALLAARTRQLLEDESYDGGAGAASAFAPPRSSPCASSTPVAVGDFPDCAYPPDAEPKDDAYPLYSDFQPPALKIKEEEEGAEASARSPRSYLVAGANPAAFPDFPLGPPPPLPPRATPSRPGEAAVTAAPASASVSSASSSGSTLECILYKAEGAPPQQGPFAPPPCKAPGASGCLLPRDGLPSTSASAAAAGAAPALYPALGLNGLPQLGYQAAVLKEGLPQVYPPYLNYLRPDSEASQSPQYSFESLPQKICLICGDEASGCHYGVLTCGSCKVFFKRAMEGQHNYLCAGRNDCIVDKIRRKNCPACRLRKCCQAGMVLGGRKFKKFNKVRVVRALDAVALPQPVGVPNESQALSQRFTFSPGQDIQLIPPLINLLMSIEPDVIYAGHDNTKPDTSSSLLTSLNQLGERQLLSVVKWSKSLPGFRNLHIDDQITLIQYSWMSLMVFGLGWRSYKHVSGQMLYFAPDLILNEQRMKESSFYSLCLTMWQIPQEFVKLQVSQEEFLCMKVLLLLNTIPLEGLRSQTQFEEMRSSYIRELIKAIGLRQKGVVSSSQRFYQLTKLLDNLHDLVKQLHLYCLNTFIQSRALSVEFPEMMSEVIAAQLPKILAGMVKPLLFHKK
Sequence of Beta-2 adrenergic receptor (P07550 whole entry): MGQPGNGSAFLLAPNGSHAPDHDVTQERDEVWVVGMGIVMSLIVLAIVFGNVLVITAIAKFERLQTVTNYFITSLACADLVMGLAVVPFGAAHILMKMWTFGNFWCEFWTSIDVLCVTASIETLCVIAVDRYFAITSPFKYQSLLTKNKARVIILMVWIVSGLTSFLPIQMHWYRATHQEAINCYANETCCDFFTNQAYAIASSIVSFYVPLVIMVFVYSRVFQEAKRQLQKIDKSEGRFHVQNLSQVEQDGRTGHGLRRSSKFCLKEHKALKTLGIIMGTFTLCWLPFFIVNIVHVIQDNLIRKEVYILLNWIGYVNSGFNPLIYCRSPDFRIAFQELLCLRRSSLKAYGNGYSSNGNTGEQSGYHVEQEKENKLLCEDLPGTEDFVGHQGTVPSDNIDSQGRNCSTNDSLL
Sequence of Gamma-aminobutyric acid type B receptor subunit 1 (Homo sapiens) (Q9UBS5 whole entry): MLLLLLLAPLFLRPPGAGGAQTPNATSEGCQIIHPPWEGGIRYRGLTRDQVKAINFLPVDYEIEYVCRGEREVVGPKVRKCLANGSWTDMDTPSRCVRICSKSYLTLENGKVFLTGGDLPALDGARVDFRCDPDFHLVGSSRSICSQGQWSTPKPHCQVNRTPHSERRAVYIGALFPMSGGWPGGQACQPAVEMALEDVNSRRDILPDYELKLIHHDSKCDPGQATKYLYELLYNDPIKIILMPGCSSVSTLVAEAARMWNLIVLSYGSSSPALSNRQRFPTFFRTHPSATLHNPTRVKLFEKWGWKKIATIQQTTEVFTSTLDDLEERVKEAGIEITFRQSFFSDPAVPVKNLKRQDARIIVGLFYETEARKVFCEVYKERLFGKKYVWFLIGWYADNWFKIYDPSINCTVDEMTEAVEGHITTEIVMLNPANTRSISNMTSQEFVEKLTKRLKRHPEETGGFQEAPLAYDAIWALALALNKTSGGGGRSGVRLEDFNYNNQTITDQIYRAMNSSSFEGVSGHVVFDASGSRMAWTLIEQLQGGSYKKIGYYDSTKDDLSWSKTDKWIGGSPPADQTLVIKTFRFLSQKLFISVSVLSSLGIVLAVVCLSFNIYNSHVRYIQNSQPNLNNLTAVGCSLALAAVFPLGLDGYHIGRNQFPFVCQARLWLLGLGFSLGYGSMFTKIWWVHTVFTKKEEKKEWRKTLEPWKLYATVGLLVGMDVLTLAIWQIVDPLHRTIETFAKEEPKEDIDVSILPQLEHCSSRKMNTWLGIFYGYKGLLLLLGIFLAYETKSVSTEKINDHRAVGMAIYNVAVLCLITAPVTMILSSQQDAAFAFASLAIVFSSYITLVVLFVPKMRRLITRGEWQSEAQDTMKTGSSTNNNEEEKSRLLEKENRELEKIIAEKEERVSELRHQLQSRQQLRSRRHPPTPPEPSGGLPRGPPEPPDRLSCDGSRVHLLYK
Sequence of Beta-1 adrenergic receptor (P08588 whole entry): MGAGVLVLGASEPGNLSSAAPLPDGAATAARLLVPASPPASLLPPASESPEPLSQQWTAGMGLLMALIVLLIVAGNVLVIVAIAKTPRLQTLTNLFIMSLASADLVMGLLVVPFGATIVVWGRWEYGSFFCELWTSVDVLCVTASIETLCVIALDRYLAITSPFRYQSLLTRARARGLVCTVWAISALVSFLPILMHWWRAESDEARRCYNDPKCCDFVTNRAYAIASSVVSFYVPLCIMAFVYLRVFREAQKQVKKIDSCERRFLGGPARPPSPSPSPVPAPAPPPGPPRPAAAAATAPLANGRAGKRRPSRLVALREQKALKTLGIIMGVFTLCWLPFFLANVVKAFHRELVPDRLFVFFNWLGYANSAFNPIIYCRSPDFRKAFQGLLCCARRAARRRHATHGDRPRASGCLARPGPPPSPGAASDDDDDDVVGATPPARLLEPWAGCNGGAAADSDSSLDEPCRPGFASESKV

By inhibition is commonly meant the drop in the measured response relative to a control, in per cent. As usually defined, the IC50 is the concentration that gives 50% inhibition. A high value points to lower potency. For the compound `CNc1cc[n+](CCNC(=O)c2ccn3c(-c4c(C)noc4C)cnc3c2)cc1`, the inhibition in series [1] is -2.1%; in [3], -8.2%; in [4], -2.2%; in series [8], -1.7%; in series [9], 4.24%; in [10], -1.8%. In addition, the inhibition was -1.9% in series [11]; 4% in series [12]; -4.1% in series [13]; -5.3% in series [14]; 10.6% in series [15]; 25.3% in [16]. The inhibition is 1.3% in series [17]; 14.8% in series [18]; 3.6% in series [19]; 3.5% in series [20]; 2.1% in series [21]; -0.9% in series [22]. In [23], the inhibition was 11.8%. Moreover, the inhibition at 60 min, 10 µM in [2] was -13.8% (not active); in series [5], 6% (not active). The IC50 in [6] and in [7] was > 10000 nM (not active) throughout.
For `Cc1noc(C)c1-c1cnc2cc(C(=O)NCCC[n+]3ccc(N(C)C)cc3)ccn12`, the results for the Ki in [24] (read-out: Ki) and in series [24] (read-out: pKi (converted)) were 212 nM and 182 nM, respectively. Besides, the inhibition in series [25] is -3.28%; in [26], 54.6%; in [27], -6.93%.
